Results from US5969132.
Where two headings read alike, the source gives them in different places.

Conditions: amide bond, NaHCO3, CH2Cl2, 72.0 h, 2 steps

SMILES	ring closure, yield of all isomers (from CC(C)[C@H](NC(=O)CNC(=O)OC(C)(C)C)C(=O)N[C@@H](Cc1ccc(OCC(=O)Oc2c(F)c(F)c(F)c(F)c2F)cc1)C(O)C(F)(F)C(=O)NCc1ccccc1) [%]	ring closure, yield of all isomers (from CC(C)[C@H](COCc1ccccc1)NC(=O)C(F)(F)C(O)[C@H](Cc1ccc(OCC(=O)Oc2c(F)c(F)c(F)c(F)c2F)cc1)NC(=O)[C@@H](NC(=O)CNC(=O)OC(C)(C)C)C(C)C, 1.69 mM) [%]
CC(C)[C@@H]1NC(=O)CNC(=O)COc2ccc(cc2)C[C@@H](C(O)C(F)(F)C(=O)NCc2ccccc2)NC1=O (some centres unmarked)	78.7	–
CC(C)[C@H](COCc1ccccc1)NC(=O)C(F)(F)[C@H](O)[C@@H]1Cc2ccc(cc2)OCC(=O)NCC(=O)N[C@@H](C(C)C)C(=O)N1	–	8
